pIC50: −log10 of the molar value.

The target in the test is Reverse transcriptase (Human immunodeficiency virus 2). In words: Inhibition of purified HIV-2 reverse transcriptase.
As usually defined, the pIC50 is the negative decadic logarithm of the IC50, by convention in mol/L. `O=C(O)c1cc(NS(=O)(=O)c2ccc(-c3ccc(S(=O)(=O)Nc4cc(C(=O)O)c(O)c(S(=O)(=O)O)c4)cc3)cc2)cc(S(=O)(=O)O)c1O`: the pIC50 is 3.32.
The molecule `Nc1c(S(=O)(=O)O)cc2cc(S(=O)(=O)O)cc(O)c2c1O` gave a pIC50 of 3.34.
As for `O=C(O)CCCCCCCCC(=O)Nc1cc(S(=O)(=O)O)cc2cc(S(=O)(=O)O)cc(O)c12`, the figure is 3.77; as for `O=C(CCCCCCCCC(=O)Nc1cc(S(=O)(=O)O)cc2cc(S(=O)(=O)O)cc(O)c12)Nc1cc(S(=O)(=O)O)cc2cc(S(=O)(=O)O)cc(O)c12`, 3.91.

These data come from BindingDB's records for doi:10.1021/jm00104a010 (University of Illinois At Chicago, 1992).
